Where only a bound is given, the exact number is not on record here.

The subject of one data set is circadian rhythms in rats.
Assay: not given
The settings on record: exogenous melatonin administration, Cassone et al. 1986; cited from earlier work.
With `COc1ccc2[nH]cc(CCNC(C)=O)c2c1` [melatonin, N-acetyl-5-methoxytryptamine], the “synchronization of circadian rhythms” value is on record as “found to synchronize circadian rhythms in rats”.

Tested on in another data set: not given
Assay: not given
The settings on record: cited from earlier work.
Turning to `COc1ccc2[nH]cc(CCNC(C)=O)c2c1` [melatonin, N-acetyl-5-methoxytryptamine], the oral bioavailability entry is “often low and variable”.

For a further data set, the target named is T1, human ML1a (Homo sapiens, UniProt P48039).
T1 construct: expressed in transfected cells; host or cells: COS-1 cells (transient, DEAE-dextran), membrane homogenate
T1 sequence (P48039 whole entry): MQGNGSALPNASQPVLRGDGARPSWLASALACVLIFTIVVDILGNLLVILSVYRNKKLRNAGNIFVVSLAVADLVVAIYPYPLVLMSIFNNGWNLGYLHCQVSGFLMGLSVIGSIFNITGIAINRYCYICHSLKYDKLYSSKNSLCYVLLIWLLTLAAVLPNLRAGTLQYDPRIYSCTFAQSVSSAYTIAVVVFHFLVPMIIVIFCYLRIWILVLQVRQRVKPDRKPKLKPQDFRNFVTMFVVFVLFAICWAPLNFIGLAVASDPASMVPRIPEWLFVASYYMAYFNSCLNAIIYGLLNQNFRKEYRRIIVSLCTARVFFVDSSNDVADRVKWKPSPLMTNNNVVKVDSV
In words: Measurement of Melatonergic Binding (human ML1a binding assay, 2-[125I]-iodomelatonin, COS-1 cell membranes). The note with it: 2-[125I]-iodomelatonin 100 pM, 37° C. for 1 hour. Here is the method: Example 35 sets out the human ML1a binding assay used to test activity.
Measurement of Melatonergic Binding
(a) 50 mM Tris buffer containing 12.5mM MgCl2 and 2mM EDTA (pH 7.4 at 37° C.).
(b) Wash buffer: 20mM Tris base containing 2mM MgCl2 (pH 7.4 at room temperature).
(c) 6-Chloromelatonin (10^-5 M final concn.).
(d) 2-[^125 I]-iodomelatonin (100 pM final concn.). Source: NEN
2. Membrane preparation. The cDNA (human ML1A) was introduced into COS-1 cells by the DEAE-dextran method. Three days later, the media was removed, the plates washed with phosphate buffered saline, the cells removed using Hank's balanced salt solution and pelleted. The supernatant was discarded and the pellets frozen. For preparing membrane homogenates, pellets are thawed on ice, and resuspended in TME buffer, Tris base, MgCl2, EDTA (pH 7.4 at 37° C.), supplemented with aprotinin, leupeptin, and phenylmethlysulfonylfluoride. The cells were then homogenized using a dounce homogenizer, and centrifuged. The resulting pellet was resuspended with a dounce homogenizer in TME and frozen. On the day of assay, the small aliquot was thawed on ice and resuspended in TME buffer.
3. Incubation: 37° C. for 1 hour. Reaction is terminated by filtration.
The procedure was based on that disclosed in: Reppert, S. M., Weaver, D. R., and Ebisawa, R. (1994), Neuron, 13, 1177-1185 (1994).
In turn, `COc1ccc2c3ccc(OC)cc3n(CCNC(=O)CS(C)(=O)=O)c2c1` [Example 22, N-[2-(2,7-Dimethoxy-9H-carbazol-9-yl)ethyl]-2-(methanesulfonyl)acetamide] gave a 50% inhibitory concentration (IC50) of at least 0.25 µM.

As for `COc1ccc2c3ccc(OC)cc3n(CCNC(=O)C(C)C)c2c1` [Example 19, N-[2-(2,7-Dimethoxy-9H-carbazol-9-yl)ethyl]-2-methylpropanamide], the IC50 is 0.1 to 0.25 µM.

`CCNC(=O)NCCn1c2cc(OC)ccc2c2ccc(OC)cc21` [Example 27, N-Ethyl-N'-[2-(2,7-dimethoxy-9H-carbazol-9-yl)ethyl]urea]: the IC50 is below 0.1 µM.

Turning to `COc1ccc2c3ccc(OC)cc3n(CCCNC(C)=O)c2c1` [Example 8, N-[3-(2,7-Dimethoxy-9H-carbazol-9-yl)propyl]acetamide], the IC50 is below 0.1 µM.

For the compound `CCCC(=O)NCCn1c2cc(OC)ccc2c2ccc(OC)cc21` [Example 18, N-[2-(2,7-Dimethoxy-9H-carbazol-9-yl)ethyl]butanamide], the IC50 was in the range of 0.1 to 0.25 µM.

Turning to `CNC(=O)NCCn1c2cc(OC)ccc2c2ccc(OC)cc21` [Example 26, N-[2-(2,7-Dimethoxy-9H -carbazol-9-yl)ethyl]-N'-methylurea], the IC50 was below 0.1 µM.

Take `COc1ccc2c3ccc(OC)cc3n(CCNC(=O)C3CC3)c2c1` [Example 20, N-[2-(2,7-Dimethoxy-9H-carbazol-9-yl)ethyl]cyclopropanecarboxamide]: the IC50 was below 0.1 µM.

The compound `COc1ccc2c3ccc(OC)cc3n(CCCNC(=O)C(C)C)c2c1` [Example 11, N-[3-(2,7-Dimethoxy-9H-carbazol-9-yl)propyl]-2-methylpropanamide] gave an IC50 of 0.1 to 0.25 µM.

`CCCC(=O)NCCCn1c2cc(OC)ccc2c2ccc(OC)cc21` [Example 10, N-[3-(2,7-Dimethoxy-9H-carbazol-9-yl)propyl]butanamide] gave an IC50 below 0.1 µM.

Turning to `CCCC(=O)NCCn1c2ccccc2c2ccc(OC)cc21` [Example 15, N-[2-(2-Methoxy-9H-carbazol-9-yl)ethyl]butanamide], the IC50 is below 0.1 µM.

`COc1ccc2c3ccccc3n(CCNC(=O)C3CC3)c2c1` [Example 17, N-[2-(2-Methoxy-9H-carbazol-9-yl)ethyl]cyclopropanecarboxamide]: the IC50 fell in the range of 0.1 to 0.25 µM.

Compound `CCC(=O)NCCCn1c2cc(OC)ccc2c2ccc(OC)cc21` [Example 9, N-[3-(2,7-Dimethoxy-9H-carbazol-9-yl)propyl]propanamide] yielded an IC50 below 0.1 µM.

For `COc1ccc2c3ccc(OC)cc3n(CCNC(=O)CSC)c2c1` [Example 21, N-[2-(2,7-Dimethoxy-9H-carbazol-9-yl)ethyl]methylthioacetamide], the IC50 was below 0.1 µM.

A word on the IC50: it is the concentration at which inhibition is half-maximal.

The record behind these values is patent publication US5677328A, “Ethylamino carbazole melatonergic agents” (Bristol-Myers Squibb Company, priority 1996, dated 1997).
